# Measured values: patent US9273057B2 (Bristol-Myers Squibb Company, priority 2012, dated 2016)
# Biological target: CK2A1 (CK2α/β) (Homo sapiens, UniProt P68400)
# Experiment: CK2 kinase assay, CK2A1 (CK2α/β)
# Type: biochemical
# Conditions: Table A; read-out: CK2A1 (CK2α/β) (IC50)
# Sequence of CK2A1 (CK2α/β) (P68400 whole entry, species assumed): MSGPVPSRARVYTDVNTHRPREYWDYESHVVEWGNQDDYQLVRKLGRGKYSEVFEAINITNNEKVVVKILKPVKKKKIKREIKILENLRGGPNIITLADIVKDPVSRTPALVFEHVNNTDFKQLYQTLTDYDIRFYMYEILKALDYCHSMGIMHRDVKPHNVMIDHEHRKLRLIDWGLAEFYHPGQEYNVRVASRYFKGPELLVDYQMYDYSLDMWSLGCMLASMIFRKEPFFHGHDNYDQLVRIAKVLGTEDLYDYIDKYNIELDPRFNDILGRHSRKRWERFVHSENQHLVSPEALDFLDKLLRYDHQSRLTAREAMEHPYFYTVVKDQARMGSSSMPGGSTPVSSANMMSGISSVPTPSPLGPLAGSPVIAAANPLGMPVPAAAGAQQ
# Sequence of CK2A1 (CK2α/β) (P67870 whole entry partner, species assumed): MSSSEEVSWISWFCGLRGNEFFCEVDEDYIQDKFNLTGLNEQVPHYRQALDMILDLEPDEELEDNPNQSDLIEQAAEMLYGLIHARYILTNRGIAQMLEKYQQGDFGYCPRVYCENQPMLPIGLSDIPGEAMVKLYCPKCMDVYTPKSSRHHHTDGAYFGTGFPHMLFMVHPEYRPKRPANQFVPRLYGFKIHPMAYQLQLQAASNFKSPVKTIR
row,IC50 [pM],Structure (SMILES)
1,710,"CCNc1nc(Nc2ccc3c(c2)c(C#N)cn3C2CCN(C3CN(C(=O)OC(C)(C)C)C3)CC2)nn2c(C#N)cnc12 [Example 831, tert-butyl 3-(4-(3-cyano-5-((7-cyano-4-(ethylamino)imidazo[2,1-f][1,2,4]triazin-2-yl)amino)-1H-indol-1-yl)piperidin-1-yl)azetidine-1-carboxylate]"
2,1810,"CCNc1nc(Nc2ccc3c(c2)c(C#N)cn3C2CCN(C3CN(C[C@@H](C)O)C3)CC2)nn2c(C#N)cnc12 [Example 833, (R)-2-((3-cyano-1-(1-(1-(2-hydroxypropyl)azetidin-3-yl)piperidin-4-yl)-1H-indol-5-yl)amino)-4-(ethylamino)imidazo[2,1-f][1,2,4]triazine-7-carbonitrile]"
3,600,"CCNc1nc(Nc2ccc3c(c2)c(C#N)cn3C2CCN(C3CN(C[C@H](C)O)C3)CC2)nn2c(C#N)cnc12 [Example 834, (S)-2-((3-cyano-1-(1-(1-(2-hydroxypropyl)azetidin-3-yl)piperidin-4-yl)-1H-indol-5-yl)amino)-4-(ethylamino)imidazo[2,1-f][1,2,4]triazine-7-carbonitrile]"
4,1440,"CCNc1nc(Nc2ccc3c(c2)c(C#N)cn3C2CCN(C3CN(C(=O)OC)C3)CC2)nn2c(C#N)cnc12 [Example 836, methyl 3-(4-(3-cyano-5-((7-cyano-4-(ethylamino)imidazo[2,1-f][1,2,4]triazin-2-yl)amino)-1H-indol-1-yl)piperidin-1-yl)azetidine-1-carboxylate]"
5,2420,"CCNc1nc(Nc2ccc3c(c2)c(C#N)cn3C2CCN(C3CN(C(C)=O)C3)CC2)nn2c(C#N)cnc12 [Example 837, 2-((1-(1-(1-acetylazetidin-3-yl)piperidin-4-yl)-3-cyano-1H-indol-5-yl)amino)-4-(ethylamino)imidazo[2,1-f][1,2,4]triazine-7-carbonitrile]"

# The next lines start with the molecule.
row,Structure (SMILES),IC50 [pM]
1,"CCNc1nc(Nc2ccc3c(c2)c(C#N)cn3C2CCN([C@H]3CS(=O)(=O)C[C@@H]3O)CC2)nn2c(C#N)cnc12 [Example 828, 2-((3-cyano-1-(1-((3R,4R)-4-hydroxy-1,1-dioxidotetrahydrothiophen-3-yl)piperidin-4-yl)-1H-indol-5-yl)amino)-4-(ethylamino)imidazo[2,1-f][1,2,4]triazine-7-carbonitrile]",360
2,"CCNc1nc(Nc2ccc3c(c2)c(C#N)cn3C2CCN([C@H]3CS(=O)(=O)C[C@H]3O)CC2)nn2c(C#N)cnc12 [Example 829, 2-((3-cyano-1-(1-((3R,4S)-4-hydroxy-1,1-dioxidotetrahydrothiophen-3-yl)piperidin-4-yl)-1H-indol-5-yl)amino)-4-(ethylamino)imidazo[2,1-f][1,2,4]triazine-7-carbonitrile]",720
3,"CCNc1nc(Nc2ccc3c(c2)c(C#N)cn3C2CCN(C[C@@H](O)CN3CCOCC3)CC2)nn2c(C#N)cnc12 [Example 830, (R)-2-((3-cyano-1-(1-(2-hydroxy-3-morpholinopropyl)piperidin-4-yl)-1H-indol-5-yl)amino)-4-(ethylamino)imidazo[2,1-f][1,2,4]triazine-7-carbonitrile]",350
4,"CCNc1nc(Nc2ccc3c(c2)c(C#N)cn3C2CCN(C3CNC3)CC2)nn2c(C#N)cnc12 [Example 832, 2-((1-(1-(azetidin-3-yl)piperidin-4-yl)-3-cyano-1H-indol-5-yl)amino)-4-(ethylamino)imidazo[2,1-f][1,2,4]triazine-7-carbonitrile]",540
5,"CCNc1nc(Nc2ccc3c(c2)c(C#N)cn3C2CCN(C3CN(C4COC4)C3)CC2)nn2c(C#N)cnc12 [Example 835, 2-((3-cyano-1-(1-(1-(oxetan-3-yl)azetidin-3-yl)piperidin-4-yl)-1H-indol-5-yl)amino)-4-(ethylamino)imidazo[2,1-f][1,2,4]triazine-7-carbonitrile]",980
6,"CCNc1nc(Nc2cc(C#N)cc(N3CC[C@@H]4[C@@H](C3)OC(=O)N4C3COC3)c2Cl)nn2c(C#N)cnc12 [Example 839, 2-((2-chloro-5-cyano-3-((3aR,7aR)-1-(oxetan-3-yl)-2-oxohexahydrooxazolo[5,4-c]pyridin-5(2H)-yl)phenyl)amino)-4-(ethylamino)imidazo[2,1-f][1,2,4]triazine-7-carbonitrile]",1190
7,"CCNc1nc(Nc2cc(C#N)cc(N3CC[C@H]4[C@H](C3)OC(=O)N4C3COC3)c2Cl)nn2c(C#N)cnc12 [Example 840, 2-((2-chloro-5-cyano-3-((3aS,7aS)-1-(oxetan-3-yl)-2-oxohexahydrooxazolo[5,4-c]pyridin-5(2H)-yl)phenyl)amino)-4-(ethylamino)imidazo[2,1-f][1,2,4]triazine-7-carbonitrile]",1740
8,CCNc1nc(Nc2cc(C#N)cc(N3CC[C@@H]4[C@@H](C3)OC(=O)N4C3CCOCC3)c2Cl)nn2c(C#N)cnc12 [Example 845],920
9,"CCNc1nc(Nc2cc(C#N)cc(N[C@@H]3CCN(C(=O)OC)C[C@H]3O)c2Cl)nn2c(C#N)cnc12 [Example 846, (3R,4R)-methyl 4-((2-chloro-5-cyano-3-((7-cyano-4-(ethylamino)imidazo[2,1-f][1,2,4]triazin-2-yl)amino)phenyl)amino)-3-hydroxypiperidine-1-carboxylate]",17300
